System: Serracia marcescens
Test: agar overlay screening for antimicrobial activity on the TLC plate
Assay type: cell-based
Conditions: agar gel containing Serracia marcescens poured over the TLC plate, left overnight at room temperature

For c1ccc(CN2CCCC2)cc1 [product], the “antibacterial activity (white inhibition zones around the spot)” value was “antibacterial activity”.

From US6858434B1, “Method for synthesis, separation and screening of a plurality of compounds in the same bulk of a stationary phase” (Sinvent AS, priority 1999, dated 2005)
